# System: primary blood monocytes
# Test: Multiplex phosphoprotein signaling in monocyte lysates, monocytes alone + LL-37
# Type: cell-based, human
# Details: 1 µM LL-37, 2 h, mean MFI normalized to β-tubulin
# Procedure: Primary blood monocytes were isolated from PBMCs by plastic adhesion in the wells of a 24-well plate 24 h prior to the experiment. For that, 2 × 10^6 PBMC were seeded in each well in 2 mL of RPMI-1640 without supplements and kept for 1 h in a humidified CO2-incubator (5% CO2, 37 °C). Then, the adhered monocytes were thoroughly washed 3 times with the culture medium without supplements, and 600 µL of the complete RPMI-1640, supplemented with 10% Human AB serum, was added into each well. Then, 24 h later, the medium in the wells of a 24-well plate was replaced by a fresh medium with or without 1 µM of LL-37, and the permeable inserts with Caco-2 monolayers with TEER > 400 Ω × cm^2, containing 400 μL of the complete medium in their apical chamber, were immediately placed into the appropriate wells for 2 h. Then, 2 h later, the culture medium and the inserts were carefully removed, and the cells in each well were washed with PBS and lysed in 100 µL of MILLIPLEX MAP Lysis Buffer (cat. #43-040, Merck, Darmstadt, Germany), containing phosphatase inhibitors including 1 mM sodium orthovanadate (Na3VO4). To prevent protein degradation, a protease inhibitor cocktail (cat. #535140, Merck) was freshly added to the MILLIPLEX MAP Lysis Buffer. Cell lysate preparation was performed in accordance with the manufacturer’s instructions.
# The phosphorylation of the following key cell signaling kinases and transcription factors was measured in cell lysates by using the MILLIPLEX multi-pathway magnetic bead 9-plex kit (#48-680MAG, Merck), containing phosphorylation state-specific antibodies: ERK/MAP kinase 1/2 (Thr185/Tyr187), Akt (Ser473), STAT3 (Ser727), JNK (Thr183/Tyr185), p70S6 kinase (Thr412), NF-κB (Ser536), STAT5A/B (Tyr694/699), CREB (Ser133), and p38 (Thr180/Tyr182). β-Tubulin MAPmate magnetic beads (#46-713MAG, Merck) were used as an assay normalization control to normalize the total protein level between the samples. A multiplex assay was carried out in accordance with the manufacturer’s instructions with overnight incubation of the samples with primary antibodies to phosphorylated signaling proteins on the MAGPIX system (Merck) using the xPONENT 4.2 software (Merck). The final analysis of the acquired fluorescence data was performed with the MILLIPLEX Analyst v5.1 software (Merck). Normalized MFI values were compared with an unpaired two-sample t-test using GraphPad Prism v.8.0.1 (GraphPad Software). The p-values ≤ 0.05 were considered significant.
substance,measurement,setting,value
"LL-37: the only human cathelicidin, host defense antimicrobial peptide of 37 a.a. residues, produced by solid-phase peptide synthesis",phosphorylated STAT3,control 0.03,0.04 MFI
same,phosphorylated NF-kB,control 96.21,54.12 MFI
same,phosphorylated STAT5,control 134.68,66.15 MFI
same,phosphorylated JNK,control 214.97,140.9 MFI
same,phosphorylated p70S6K,control 279.26,462.14 MFI
same,phosphorylated Akt,control 3026,2827 MFI
same,phosphorylated ERK 1/2,control 5351,4054 MFI
same,phosphorylated p38,control 28314,24565 MFI
same,phosphorylated CREB,control 151618,112466 MFI
